From US8481738B2, “Gonadotropin-releasing hormone receptor antagonists and methods relating thereto” (Neurocrine Biosciences, Inc., priority 2007, dated 2013)

Each compound was assayed against T1, human GnRH receptor (Homo sapiens, UniProt P30968) (assay: Peptide competition radioligand binding displacement assay, human GnRH receptor membranes). Details: one or more of the peptide competition human receptor binding assays.
T1 construct: expressed in transfected cells; host or cells: RBL cells, stably transfected (in general)
T1 sequence (P30968 1-328): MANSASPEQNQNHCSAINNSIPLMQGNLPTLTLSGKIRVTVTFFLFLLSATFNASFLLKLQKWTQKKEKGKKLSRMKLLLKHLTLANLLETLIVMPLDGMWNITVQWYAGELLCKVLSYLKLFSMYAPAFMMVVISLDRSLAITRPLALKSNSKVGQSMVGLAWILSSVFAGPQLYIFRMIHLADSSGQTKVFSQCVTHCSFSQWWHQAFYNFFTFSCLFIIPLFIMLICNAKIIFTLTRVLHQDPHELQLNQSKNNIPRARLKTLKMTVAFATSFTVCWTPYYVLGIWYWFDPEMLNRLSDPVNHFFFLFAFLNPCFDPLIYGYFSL
Method: cDNA's of human, rhesus macaque, rabbit, dog and rat GnRH receptors are cloned into pcDNA3.1 (+) (Invitrogen). Full length sequences of all receptors are confirmed by DNA sequencing. HEK 293, CHO, COS-7, or rat basophilic leukemia (RBL) cells are stably transfected with human, rat, or macaque GnRH receptors and high expressing single cell clones (Bmax≧0.4 pMol/mg membrane protein) are isolated and maintained in Dulbecco's Modified Eagles Medium (DMEM) with following supplements: 10 mM HEPES; 2 mM L-glutamine; 1 mM Sodium Pyruvate; 50 U/mL penicillin, 50 μg/mL streptomycin; 10% Heat-inactivated Fetal Bovine Serum and 200 μg/mL Geneticin (G-418-Sulfate). Non-essential amino acids (0.1 mM) (Irvine Scientific; Santa Ana, Calif.) are included in the RBL cell media.
In general, initial peptide radioligand binding assays are carried out using membranes from stably transfected RBL cells. RBL stable clones are found to more consistently express high levels of GnRH receptor and are therefore used for subsequent binding studies as well as Ca^++ flux and inositol phosphate accumulation assays. Transiently transfected COS-7 cells are used for preparation of membranes containing GnRH receptors from multiple species (as well as those of mutant receptors for other studies) because of the convenience for rapidly analyzing multiple receptors.
HEK293 cells stably transfected with the human GnRH receptor are grown for two days after achieving confluence then are harvested by striking tissue culture flasks against a firm surface. Cells are collected by centrifugation at 1000 g for 5 minutes. Cell pellets are resuspended in 5% sucrose and homogenized using a polytron homogenizer for two 15 second homogenization steps. Cell homogenates are then centrifuged for 5 minutes at 3000 g to remove nuclei and the supernatant subsequently centrifuged for 30 minutes at 44,000 g to collect the membrane fraction. The membrane pellet is resuspended in GnRH binding buffer (10 mM HEPES, pH 7.5, 150 mM NaCl and 0.1% BSA) and aliquots immediately snap-frozen in liquid nitrogen and stored at −80° C. Protein content of the membrane suspension is determined using the Bio-Rad protein assay kit (Bio-Rad).
RBL cells stably transfected with the human GnRH receptor are grown to 80% confluency prior to harvesting. The cells are incubated at 37° C. for 10 min in 0.5 mM EDTA/PBS (Ca^++, Mg^++ free), and are dislodged from the plate by gentle rapping of the flasks. Cells are collected and pelleted by centrifugation at 1000 g for 5 minutes. Cell pellets are resuspended in buffer (DPBS supplemented with 10 mM MgCl2, 2 mM EGTA, pH=7.4), and cell lysis is performed using a pressure cell and applying N2 at a pressure of 900 psi for 30 min at 4° C. Unbroken cells and larger debris were removed by centrifugation at 1200 g for 10 min at 4° C. The cell membrane supernatant is then centrifuged at 45,000 g and the resulting membrane pellet is resuspended in assay buffer and homogenized on ice using a tissue homogenizer. Protein concentrations are determined using the Coomassie Plus Protein Reagent kit. Membranes are aliquoted and stored at −80° C. until ready for use.
COS-7 cells transiently transfected with GnRH receptors from different species (human, macaque, dog, rabbit, rat) or mutant GnRH receptors are prepared by bulk electroporation. COS-7 cells are obtained from American Type Cell Culture (Manassas, Va.) and are maintained in Dulbeccos's modified Eagle's medium (DMEM) (MediaTech Inc., Herndon, Va.) containing 10% fetal bovine serum, 10 mM HEPES, 2 mM L-glutamine, 1 mM sodium pyruvate, 50 U/mL penicillin, 50 μg/mL streptomycin. COS-7 cells are seeded in 500 cm^2 tissue culture plates and grown to confluency prior to cell transfection. […]

| SMILES | Ki [nM] |
| --- | --- |
| Cc1cc(Cl)ncc1-c1cc(C(=O)N(C)c2cccc(F)c2OCCCC(=O)O)ccc1Cl [4-4] | ≤ 100 |
| Cc1cc(Cl)c(-c2cc(C(=O)N(C)c3c(C)cccc3C)ccc2Cl)cn1 [2-19] | ≤ 100 |
| Cc1cccc(C)c1N(C)C(=O)c1ccc(Cl)c(-c2ncc(C(F)(F)F)cc2Cl)c1 [2-65] | ≤ 100 |
| COc1ccccc1N(C)C(=O)c1ccc(Cl)c(-c2ccc(C(F)(F)F)nc2)c1 [2-11] | ≤ 100 |
| CN(C(=O)c1ccc(Cl)c(-c2ncc(C(F)(F)F)cc2Cl)c1)c1ccccc1F [2-76] | ≤ 100 |
| COc1ccccc1N(C)C(=O)c1ccc(Cl)c(-c2cnc(C)cc2Cl)c1 [2-8] | ≤ 100 |
| CN(C(=O)c1ccc(Cl)c(-c2ccc(Cl)cc2C#N)c1)c1ccccc1OCCCC(=O)O [5-6] | ≤ 100 |
| Cc1cc(Cl)c(-c2cc(C(=O)N(C)c3cccc(C)c3C)ccc2Cl)cn1 [2-22] | ≤ 100 |
| COc1ccccc1N(C)C(=O)c1ccc(Cl)c(-c2nc3ccccc3cc2C=O)c1 [2-48] | ≤ 100 |
| Cc1cccc(O)c1N(C)C(=O)c1ccc(Cl)c(-c2cnc(C(F)(F)F)cc2C#N)c1 [8-7] | ≤ 100 |
| CN(C)CCOc1ccccc1N(C)C(=O)c1ccc(Cl)c(-c2cnc(Cl)cc2Cl)c1 [7-1, 4-Chloro-3-(4,6-dichloro-pyridin-3-yl)-N-[2-(2-dimethylamino-ethoxy)-phenyl]-N-methyl-benzamide] | ≤ 100 |
| Cc1cnc(-c2cc(C(=O)N(C)c3cccc(C)c3C)ccc2Cl)c(Cl)c1 [2-67] | ≤ 100 |
| Cc1ccccc1N(C)C(=O)c1ccc(Cl)c(-c2ccc(Cl)nc2)c1 [2-15] | ≤ 100 |
| COc1ccccc1N(C)C(=O)c1ccc(Cl)c(-c2cnc(C#N)cc2C)c1 [2-10, 4-chloro-3-(6-cyano-4-methyl-pyridin-3-yl)-N-(2-methoxy-phenyl)-N-methyl-benzamide] | ≤ 100 |
| COc1ccccc1N(C)C(=O)c1ccc(Cl)c(-c2ncc(Cl)cc2C)c1 [2-57] | ≤ 100 |
| COc1ccccc1N(C)C(=O)c1ccc(Cl)c(-c2ncc(C)cc2Cl)c1 [2-58] | ≤ 100 |
| COc1c(Cl)cccc1N(C)C(=O)c1ccc(Cl)c(-c2cnc(C)cc2Cl)c1 [2-46] | ≤ 100 |

Further lines, results first:

| Ki [nM] | SMILES |
| --- | --- |
| ≤ 100 | Cc1cccc(C)c1N(C)C(=O)c1ccc(Cl)c(-n2c(C)cc(C(F)(F)F)nc2=O)c1 [30-11] |
| ≤ 100 | Cc1cc(Cl)ncc1-c1cc(C(=O)N(C)c2ccccc2OCCC(=O)O)ccc1Cl [11-2] |
| ≤ 100 | COc1cccc(C)c1N(C)C(=O)c1cc(-c2cnc(C(F)(F)F)cc2C#N)c(Cl)cc1OCC(=O)O [22-9] |
| ≤ 100 | CN(C(=O)c1ccc(Cl)c(-c2nc3c(F)c(F)c(F)c(F)c3cc2C#N)c1)c1ccccc1OCCCC(=O)O [33-3] |
| ≤ 100 | COc1ccccc1N(C)C(=O)c1cc(-c2cnc(C(F)(F)F)cc2C#N)c(Cl)cc1OCCCc1cnoc1 [46-1, 4-Chloro-5-(4-cyano-6-trifluoromethyl-pyridin-3-yl)-2-(3-isoxazol-4-yl-propoxy)-N-(2-methoxyphenyl)-N-methyl-benzamide] |
| ≤ 100 | Cc1cc(C#N)ncc1-c1cc(C(=O)N(C)c2c(C)cccc2OCCC(=O)O)ccc1Cl [11-6] |
| ≤ 100 | CN(C(=O)c1ccc(Cl)c(-c2cnc(C(F)(F)F)cc2C#N)c1)c1ccccc1OCCc1nnn[nH]1 [45-1, 4-Chloro-3-(4-cyano-6-trifluoromethyl-pyridin-3-yl)-N-methyl-N-{2-[2-(1H-tetrazol-5-yl)-ethoxy]-phenyl}-benzamide] |
| ≤ 100 | COc1cc(Cl)c(-c2cnc(C(F)(F)F)cc2C#N)cc1C(=O)N(C)c1cc(F)ccc1C [39-11] |
| ≤ 100 | COc1ccccc1N(C)C(=O)c1cc(-c2cnc(C(F)(F)F)cc2C#N)c(Cl)cc1OCCCc1ccncc1 [42-9] |
| ≤ 100 | COc1ccccc1N(C)C(=O)c1cc(-c2cnc(C(F)(F)F)cc2C#N)c(Cl)cc1OCCn1ccnc1 [42-3] |
| ≤ 100 | COc1cc(Cl)c(-c2cnc(C(F)(F)F)cc2C#N)cc1C(=O)N(C)c1ncccc1C [39-21] |
| ≤ 100 | CN(C(=O)c1ccc(Cl)c(-c2cnc(C(F)(F)F)cc2C#N)c1)c1ccccc1OCCNC(=O)NS(C)(=O)=O [41-1, 4-Chloro-3-(4-cyano-6-trifluoromethyl-pyridin-3-yl)-N-{2-[2-(3-methylsulfonyl-ureido)-ethoxy]-phenyl}-N-methyl-benzamide] |
| ≤ 100 | COc1cccc(C)c1N(C)C(=O)c1cc(-c2cnc(C(F)(F)F)cc2C#N)c(Cl)cc1OCCCN [23-1, 2-(3-Amino-propoxy)-4-chloro-5-(4-cyano-6-trifluoromethyl-pyridin-3-yl)-N-(2-methoxy-6-methyl-phenyl)-N-methyl-benzamide] |
| ≤ 100 | Cc1cccc(C)c1N(C)C(=O)c1cc(-c2cnc(C(F)(F)F)cc2C#N)c(Cl)cc1OCCCCO [21-4] |
| ≤ 100 | COc1cc(Cl)c(-c2cnc(C(F)(F)F)cc2C#N)cc1C(=O)N(C)c1ccccc1OC [38-1, 4-Chloro-5-(4-cyano-6-trifluoromethyl-pyridin-3-yl)-2-methoxy-N-(2-methoxy-phenyl)-N-methyl-benzamide] |
| ≤ 100 | Cc1cc(Cl)ncc1-c1cc(C(=O)N(C)c2ccccc2CCCC(=O)O)ccc1Cl [14-1, 4-(2-{[4-Chloro-3-(6-chloro-4-methyl-pyridin-3-yl)-benzoyl]-methyl-amino}-phenyl)-butyric acid] |
| ≤ 100 | COc1cccc(C)c1N(C)C(=O)c1cc(-c2cnc(C(F)(F)F)cc2C#N)c(Cl)cc1OCCC(=O)O [22-10] |
| ≤ 100 | COc1ccccc1N(C)C(=O)c1cc(-c2cnc(C(F)(F)F)cc2C#N)c(Cl)cc1OCCOc1ccccn1 [42-8] |
| ≤ 100 | CC(C)OC(=O)OC(C)OC(=O)CCOc1ccccc1N(C)C(=O)c1ccc(Cl)c(-c2cnc(C(F)(F)F)cc2C#N)c1 (stereo not shown) [37-2, 3-(2-{[4-Chloro-3-(4-cyano-6-trifluoromethyl-pyridin-3-yl)-benzoyl]-methyl-amino}-phenoxy)-propionic acid 1-isopropoxycarbonyloxy-ethyl ester] |
| ≤ 100 | COc1ccccc1N(C)C(=O)c1cc(-c2cnc(C(F)(F)F)cc2C#N)c(Cl)cc1OCCCn1cccc1 [42-10] |
| ≤ 100 | COc1ccccc1N(C)C(=O)c1cc(-c2cnc(C(F)(F)F)cc2C#N)c(Cl)cc1OCCc1cnccn1 [46-3] |
| ≤ 100 | CN(C(=O)c1ccc(Cl)c(-c2cnc(C(F)(F)F)cc2C#N)c1)c1ccccc1OCCC(=O)N1CCNCC1 [53-2, 4-Chloro-3-(4-cyano-6-trifluoromethyl-pyridin-3-yl)-N-methyl-N-[2-(3-oxo-3-piperazin-1-yl-propoxy)-phenyl]-benzamide] |
| ≤ 100 | COC(=O)c1ccc(Cl)cc1N(C)C(=O)c1cc(-c2cnc(C(F)(F)F)cc2C#N)c(Cl)cc1OC [39-8] |
| ≤ 100 | CN(C(=O)c1cc(-c2cnc(C(F)(F)F)cc2C#N)c(Cl)cc1OCCCC(=O)O)c1ccccc1OC(F)(F)F [34-3] |
| ≤ 100 | COc1ccccc1N(C)C(=O)c1ccc(Cl)c(-c2c(Cl)cc(Cl)c[n+]2[O-])c1 [27-1, 4-Chloro-3-(3,5-dichloro-1-oxy-pyridin-2-yl)-N-(2-methoxy-phenyl)-N-methyl-benzamide] |
| ≤ 100 | COc1ccccc1N(C)C(=O)c1cc(-c2cnc(C(F)(F)F)cc2C#N)c(Cl)cc1OCCCn1cccn1 [42-12] |
